Measured values published in the CheMixHub drug solubility set.

Test: xn = mol fraction of the nth substance listed, in the solute-free solvent

CC(C)Oc1ccc2c(=O)c(-c3ccccc3)coc2c1 + CN(C)C=O + CCO
solubility (g/100 g solution)
Conditions | 278.15 K | 283.15 K | 288.15 K | 293.15 K | 298.15 K | 303.15 K | 308.15 K | 313.15 K | 318.15 K | 323.15 K
x2 = 0.1358 | 1.29 | 1.64 | 2.07 | 2.55 | 3.28 | 4.15 | 5.33 | 6.87 | 8.61 | 11
x2 = 0.2956 | 2.42 | 3 | 3.68 | 4.58 | 5.6 | 6.95 | 8.67 | 10.9 | 13.3 | 16.5
x2 = 0.4859 | 3.8 | 4.83 | 5.92 | 7.22 | 8.72 | 10.4 | 12.9 | 15.3 | 18.8 | 22.7
x2 = 0.716 | 5.06 | 6.49 | 7.97 | 9.74 | 11.7 | 14.2 | 17.1 | 20.4 | 24 | 28.5

O=CC(O)C(O)C(O)CO (centres undefined) + CCO + CCCCCC
solubility (g/100 g solution)
Conditions | x2 = 0.1 | x2 = 0.2 | x2 = 0.3 | x2 = 0.4 | x2 = 0.5 | x2 = 0.6 | x2 = 0.7 | x2 = 0.8 | x2 = 0.9
283.15 K | 0.0708 | 0.0912 | 0.139 | 0.18 | 0.281 | 0.514 | 0.692 | 1.16 | 1.73
293.15 K | 0.0738 | 0.111 | 0.171 | 0.268 | 0.425 | 0.715 | 1.07 | 1.56 | 2.52
303.15 K | 0.0959 | 0.119 | 0.186 | 0.375 | 0.676 | 1.1 | 1.5 | 2.39 | 4.09
313.15 K | 0.117 | 0.179 | 0.269 | 0.599 | 0.925 | 1.8 | 2.44 | 4.02 | 6.9
323.15 K | 0.147 | 0.234 | 0.317 | 0.98 | 1.54 | 2.72 | 3.96 | 6.76 | 12.3

CCc1cccc2c3c([nH]c12)C(CC)(CC(=O)O)OCC3 (centres undefined) + CCCO + CCCCCC
solubility (g/100 g solution)
Conditions | 278.15 K | 283.15 K | 288.15 K | 293.15 K | 298.15 K | 303.15 K | 308.15 K | 313.15 K | 318.15 K | 323.15 K
x2 = 0.2645 | 3.73 | 4.25 | 4.84 | 5.55 | 6.34 | 7.19 | 8.14 | 9.21 | 10.4 | 11.7
x2 = 0.4889 | 7.29 | 8.31 | 9.43 | 10.8 | 12.2 | 14 | 15.9 | 18.1 | 20.6 | 23.4
x2 = 0.6827 | 10.4 | 11.8 | 13.4 | 15.2 | 17 | 19.4 | 22.2 | 25.3 | 28.6 | 31.9
x2 = 0.8514 | 12.8 | 14.4 | 16.5 | 18.7 | 21.5 | 24.5 | 27.9 | 31.4 | 35.1 | 38.5

Cl.c1ccc2c(CC3=NCCN3)cccc2c1 + CO + CC(C)O
solubility (g/100 g solution)
Conditions | 278.15 K | 283.15 K | 288.15 K | 293.15 K | 298.15 K | 303.15 K | 308.15 K | 313.15 K | 318.15 K | 323.15 K
x2 = 0.1724 | 0.41 | 0.484 | 0.577 | 0.695 | 0.819 | 1.01 | 1.16 | 1.42 | 1.62 | 1.85
x2 = 0.3192 | 0.793 | 0.94 | 1.05 | 1.29 | 1.46 | 1.74 | 2.05 | 2.38 | 2.74 | 3.14
x2 = 0.4456 | 1.3 | 1.58 | 1.8 | 2.14 | 2.45 | 2.88 | 3.31 | 3.94 | 4.53 | 5.08
x2 = 0.5556 | 1.91 | 2.41 | 2.82 | 3.29 | 3.8 | 4.3 | 5.07 | 6.02 | 6.76 | 7.78
x2 = 0.6522 | 2.34 | 2.72 | 3.12 | 3.71 | 4.22 | 4.92 | 5.63 | 6.51 | 7.33 | 8.47
x2 = 0.7377 | 2.88 | 3.52 | 4.25 | 5.06 | 5.99 | 6.93 | 7.8 | 8.95 | 10.2 | 11.5
x2 = 0.814 | 3.62 | 4.51 | 5.34 | 6.58 | 7.66 | 8.91 | 10.4 | 11.8 | 13.3 | 14.9
x2 = 0.8823 | 4.46 | 5.61 | 6.67 | 8.06 | 9.39 | 11 | 12.7 | 14.7 | 16.4 | 18.4
x2 = 0.944 | 5.43 | 6.55 | 7.62 | 9.25 | 10.7 | 12.9 | 15 | 17.3 | 19.4 | 21.8

O=c1cc(-c2ccccc2)oc2cc(O)c(O)c(O)c12 + CCO + O
solubility (g/100 g solution)
Conditions | 283.15 K | 288.15 K | 293.15 K | 298.15 K | 303.15 K | 308.15 K | 313.15 K | 318.15 K | 323.15 K | 328.15 K
x2 = 0.2 | 0.0427 | 0.0499 | 0.0671 | 0.0809 | 0.0932 | 0.105 | 0.128 | 0.157 | 0.179 | 0.228
x2 = 0.4 | 0.194 | 0.221 | 0.262 | 0.314 | 0.372 | 0.444 | 0.554 | 0.643 | 0.73 | 0.887
x2 = 0.6 | 0.413 | 0.455 | 0.52 | 0.587 | 0.663 | 0.795 | 0.919 | 1.07 | 1.23 | 1.46
x2 = 0.8 | 0.474 | 0.525 | 0.574 | 0.634 | 0.728 | 0.831 | 0.939 | 1.08 | 1.27 | 1.51

O=CC(O)C(O)C(O)CO (centres undefined) + CO + ClCCl
solubility (g/100 g solution)
Conditions | x2 = 0.1 | x2 = 0.2 | x2 = 0.3 | x2 = 0.4 | x2 = 0.5 | x2 = 0.6 | x2 = 0.7 | x2 = 0.8 | x2 = 0.9
283.15 K | 0.097 | 0.564 | 1.19 | 1.64 | 2.52 | 3.8 | 4.89 | 6.81 | 9.89
288.15 K | 0.17 | 0.673 | 1.33 | 1.81 | 2.86 | 4.63 | 5.87 | 8.86 | 12.6
293.15 K | 0.204 | 0.696 | 1.5 | 2.4 | 3.52 | 5.59 | 7.17 | 10.8 | 15.8
298.15 K | 0.281 | 0.774 | 1.78 | 2.73 | 4.3 | 6.87 | 9.1 | 13.4 | 20.1
303.15 K | 0.286 | 0.82 | 2.17 | 3.22 | 5.29 | 9.18 | 12.7 | 18.3 | 25.3

CC(C)Oc1ccc2c(=O)c(-c3ccccc3)coc2c1 + CN1CCCC1=O + CCO
solubility (g/100 g solution)
Conditions | 278.15 K | 283.15 K | 288.15 K | 293.15 K | 298.15 K | 303.15 K | 308.15 K | 313.15 K | 318.15 K | 323.15 K
x2 = 0.1038 | 1.5 | 1.87 | 2.26 | 2.85 | 3.5 | 4.39 | 5.46 | 6.91 | 8.81 | 10.8
x2 = 0.2359 | 2.85 | 3.39 | 4.07 | 4.91 | 6.03 | 7.33 | 8.92 | 11 | 13.1 | 15.9
x2 = 0.41 | 5.57 | 6.67 | 7.63 | 9.21 | 10.9 | 12.9 | 15.3 | 17.8 | 21 | 24.9
x2 = 0.6471 | 9.68 | 11 | 12.7 | 14.6 | 16.8 | 19.3 | 22.1 | 25.1 | 28.4 | 32.1

CCc1cccc2c3c([nH]c12)C(CC)(CC(=O)O)OCC3 (centres undefined) + CC(C)=O + CCCCCC
solubility (g/100 g solution)
Conditions | 278.15 K | 283.15 K | 288.15 K | 293.15 K | 298.15 K | 303.15 K | 308.15 K | 313.15 K | 318.15 K | 323.15 K
x2 = 0.2707 | 4.23 | 4.59 | 4.94 | 5.31 | 5.68 | 6.06 | 6.49 | 6.82 | 7.19 | 7.56
x2 = 0.4972 | 13.3 | 14.4 | 15.4 | 16.4 | 17.8 | 19 | 19.9 | 20.9 | 22 | 23
x2 = 0.69 | 22.1 | 23.7 | 25.3 | 26.8 | 28.7 | 31 | 32.8 | 34.7 | 36.7 | 38.4
x2 = 0.8558 | 20.2 | 21.8 | 23.3 | 24.9 | 26.6 | 28.4 | 29.9 | 31.4 | 33.3 | 34.8

O=C(O)c1ccc(-n2nc(-c3ccccc3O)nc2-c2ccccc2O)cc1 + CC(O)CO + CO
298.15 K
Conditions | solubility (g/100 g solution)
x2 = 0.0447 | 13.5
x2 = 0.09525 | 14.2
x2 = 0.1529 | 14.4
x2 = 0.2192 | 14.6
x2 = 0.2963 | 14.2
x2 = 0.3871 | 13.7
x2 = 0.4956 | 12.9
x2 = 0.6275 | 11.8
x2 = 0.7912 | 10.4
